The target of one assay is Ret(h) (Homo sapiens, UniProt P07949). The assay is described as follows: Kinase profiling of R428. The note with it: for efficiency in targeting Ret(h): 100 μM ATP, lower number = more robust inhibition. It is filed as biochemical. On the procedure:
(§1) The efficiency of the AXL inhibitor R428 for targeting different kinases was assessed by Kinase Profiling Services using 100 μM ATP concentration (EMD Millipore). R428 was tested at 1 and 10 μM. Table IV lists the kinases profiled along with the efficiency in targeting the kinases with a lower number indicating a more robust inhibition of a particular kinase.

The target in a further assay is PKBα(h) (Homo sapiens, UniProt P31749). As to the kind of experiment: Kinase profiling of R428. It is filed as biochemical. The note with it: 100 μM ATP, lower number = more robust inhibition, read-out: efficiency in targeting PKBα(h). On the procedure:
as §1

The target in the next assay is SAPK4(h) (Homo sapiens, UniProt O15264). As to the kind of experiment: Kinase profiling of R428. It is filed as biochemical. The note with it: 100 μM ATP, lower number = more robust inhibition. On the procedure: as §1
Sequence of SAPK4(h) (O15264 whole entry): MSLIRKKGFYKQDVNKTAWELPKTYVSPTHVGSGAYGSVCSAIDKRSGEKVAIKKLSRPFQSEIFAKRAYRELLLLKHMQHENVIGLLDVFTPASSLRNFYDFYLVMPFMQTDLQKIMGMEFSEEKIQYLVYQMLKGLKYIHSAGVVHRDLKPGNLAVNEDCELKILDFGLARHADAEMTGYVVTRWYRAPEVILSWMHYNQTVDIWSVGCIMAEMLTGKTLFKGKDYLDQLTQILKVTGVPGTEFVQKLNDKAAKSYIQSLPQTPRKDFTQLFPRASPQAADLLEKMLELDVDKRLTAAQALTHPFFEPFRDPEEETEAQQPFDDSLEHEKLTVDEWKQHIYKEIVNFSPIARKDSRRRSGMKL
In another assay the target is CDK1/cyclinB (Hh) (Homo sapiens, UniProt P06493). As to the kind of experiment: Kinase profiling of R428. It is filed as biochemical. The following applies: 100 μM ATP, lower number = more robust inhibition. On the procedure: as §1
Sequence of CDK1/cyclinB (Hh) (P06493 whole entry): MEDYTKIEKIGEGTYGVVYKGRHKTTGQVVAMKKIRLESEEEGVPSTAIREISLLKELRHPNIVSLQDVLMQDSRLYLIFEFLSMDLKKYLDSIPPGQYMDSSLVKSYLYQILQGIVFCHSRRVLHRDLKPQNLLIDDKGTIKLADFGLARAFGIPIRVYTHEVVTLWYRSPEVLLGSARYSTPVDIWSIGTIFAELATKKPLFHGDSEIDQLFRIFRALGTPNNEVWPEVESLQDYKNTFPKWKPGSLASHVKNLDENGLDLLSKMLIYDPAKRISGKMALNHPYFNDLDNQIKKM
Sequence of CDK1/cyclinB (Hh) (P14635 whole entry partner): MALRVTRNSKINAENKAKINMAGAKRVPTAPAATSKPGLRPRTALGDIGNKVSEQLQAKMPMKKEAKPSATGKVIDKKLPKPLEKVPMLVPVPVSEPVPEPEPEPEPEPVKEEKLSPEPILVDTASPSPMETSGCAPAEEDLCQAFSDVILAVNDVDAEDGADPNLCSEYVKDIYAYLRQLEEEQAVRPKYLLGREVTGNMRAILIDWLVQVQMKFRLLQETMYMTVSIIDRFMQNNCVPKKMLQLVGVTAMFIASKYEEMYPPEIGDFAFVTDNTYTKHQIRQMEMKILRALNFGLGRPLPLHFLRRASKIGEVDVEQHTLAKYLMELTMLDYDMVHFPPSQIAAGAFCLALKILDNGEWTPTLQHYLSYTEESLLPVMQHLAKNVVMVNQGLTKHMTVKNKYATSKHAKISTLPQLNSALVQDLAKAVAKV
The target in another assay is TrkC(h) (Homo sapiens, UniProt Q16288). The assay is described as follows: Kinase profiling of R428. The assay is classed as biochemical. The note with it: 100 μM ATP, lower number = more robust inhibition. On the procedure:
as §1

Assay [1] has as its system MAFA expression. As to the kind of experiment: Stage 7 treatment, real-time PCR of MAFA (Example 6). It is filed as cell-based, human. The note with it: Stage 7, day 7, 2 μM in Stage 7 medium, H1-derived cells, mRNA. The protocol:
(§2) Cells of the human embryonic stem cell line H1 (WA01) were seeded as single cells at 1×10^5 cells/cm^2 on MATRIGEL™ (1:30 dilution) coated dishes in E8 media. At about 70 to 80% confluency, the cultures were washed in 1× incomplete DPBS followed by incubation with 1× TrypLET™ Express Enzyme for 3 to 5 minutes at 37° C. The released cells were rinsed with E8 and spun at 1000 rpm for 5 minutes. The resulting cell pellet was resuspended in E8 supplemented with 10 μM Y-27632 and the single cell suspension was seeded at approximately 1.3 to 1.5×10^5 cells/cm^2. The cultures were fed every day with E8 medium and differentiation, according to the following protocol, was initiated 48 hrs. following seeding resulting in an about 90% starting confluency.
Stage 6 cells were cultured for seven days in BLAR medium supplemented with a 1:100 dilution of ITS-X; 20 mM glucose (final); 1.5 g/L sodium bicarbonate; 2% FAF-BSA; 10 μg/ml of heparin, 10 μM ZnSO4, 1 μM T3 as 3,3′, 5-triiodo-L-thyronine sodium salt, 10 μM ALK5 inhibitor II, 1 mM N-acetyl cysteine. […]
At Stage 7, day 7, mRNA was collected and expression of MAFA, UCN3, PDX1, NKX6.1, insulin and G6PC2 evaluated as compared to undifferentiated human stem cells. […]
(In general: In qPCR the cycle at which signal appears reflects the starting amount.)

For assay [2], the system named is MAFA expression. The assay is described as follows: Stage 7 treatment, real-time PCR of MAFA (Example 7). It is filed as cell-based, human. The following applies: Stage 7, day 14, 2 μM R428 or 2-5 μM inhibitor substituted for R428, H1-derived cells, mRNA. The protocol: as §2, with “TrypLE™” for “TrypLET™”
Stage 6 cells were cultured for fourteen days in BLAR medium supplemented with a 1:100 dilution of ITS-X; 20 mM glucose (final); 1.5 g/L sodium bicarbonate; 2% FAF-BSA; 10 μg/ml of heparin, 10 μM ZnSO4, 1 μM T3 as 3,3′, 5-triiodo-L-thyronine sodium salt, 10 μM ALK5 inhibitor II, 1 mM N-acetyl cysteine. Some cultures also included one of 2 μM R428, 2-5 μM RSK inhibitor II (2-(3,5-Difluoro-4-hydroxy-anilino)-8-isopentyl-5,7-dimethyl-7H-pteridin-6-one) (EMD Millipore; Catalog No, 559286-5MG), 2-5 μM aurora kinase inhibitor II (EMD Millipore, or a combination of 2-5 μM RSK inhibitor II and 2-5 μM aurora kinase II inhibitor.
At Stage 7, day 14, mRNA was collected and compared to undifferentiated human stem cells.

Sequence of Ret(h) (P07949 29-1114): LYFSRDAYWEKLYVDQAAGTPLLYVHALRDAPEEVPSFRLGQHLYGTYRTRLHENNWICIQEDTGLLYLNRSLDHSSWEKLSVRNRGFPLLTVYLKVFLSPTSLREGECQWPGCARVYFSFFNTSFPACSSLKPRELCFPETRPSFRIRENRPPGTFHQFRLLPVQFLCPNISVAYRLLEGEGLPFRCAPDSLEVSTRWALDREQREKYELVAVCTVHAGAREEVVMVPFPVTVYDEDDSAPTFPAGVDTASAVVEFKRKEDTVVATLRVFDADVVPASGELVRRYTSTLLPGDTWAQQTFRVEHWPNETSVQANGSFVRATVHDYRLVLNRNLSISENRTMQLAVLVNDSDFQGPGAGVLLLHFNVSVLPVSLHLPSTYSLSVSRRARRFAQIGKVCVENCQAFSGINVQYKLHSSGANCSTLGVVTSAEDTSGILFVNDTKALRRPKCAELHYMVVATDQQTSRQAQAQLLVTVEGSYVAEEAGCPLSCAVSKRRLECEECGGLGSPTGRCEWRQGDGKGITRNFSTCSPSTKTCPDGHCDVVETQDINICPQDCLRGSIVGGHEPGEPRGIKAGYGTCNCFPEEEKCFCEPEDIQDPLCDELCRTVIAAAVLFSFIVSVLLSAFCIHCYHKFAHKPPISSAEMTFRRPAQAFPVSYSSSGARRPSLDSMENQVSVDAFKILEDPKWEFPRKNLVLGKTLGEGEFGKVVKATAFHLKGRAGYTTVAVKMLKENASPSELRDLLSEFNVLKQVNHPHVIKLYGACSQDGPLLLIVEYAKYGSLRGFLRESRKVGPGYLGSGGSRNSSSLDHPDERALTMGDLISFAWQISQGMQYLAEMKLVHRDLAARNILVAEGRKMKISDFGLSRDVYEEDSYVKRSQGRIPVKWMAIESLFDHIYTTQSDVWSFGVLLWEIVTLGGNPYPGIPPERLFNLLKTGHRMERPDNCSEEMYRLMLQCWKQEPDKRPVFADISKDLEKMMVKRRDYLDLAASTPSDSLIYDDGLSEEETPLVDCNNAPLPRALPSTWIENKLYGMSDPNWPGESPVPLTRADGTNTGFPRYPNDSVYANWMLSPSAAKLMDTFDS
Sequence of TrkC(h) (Q16288 32-839): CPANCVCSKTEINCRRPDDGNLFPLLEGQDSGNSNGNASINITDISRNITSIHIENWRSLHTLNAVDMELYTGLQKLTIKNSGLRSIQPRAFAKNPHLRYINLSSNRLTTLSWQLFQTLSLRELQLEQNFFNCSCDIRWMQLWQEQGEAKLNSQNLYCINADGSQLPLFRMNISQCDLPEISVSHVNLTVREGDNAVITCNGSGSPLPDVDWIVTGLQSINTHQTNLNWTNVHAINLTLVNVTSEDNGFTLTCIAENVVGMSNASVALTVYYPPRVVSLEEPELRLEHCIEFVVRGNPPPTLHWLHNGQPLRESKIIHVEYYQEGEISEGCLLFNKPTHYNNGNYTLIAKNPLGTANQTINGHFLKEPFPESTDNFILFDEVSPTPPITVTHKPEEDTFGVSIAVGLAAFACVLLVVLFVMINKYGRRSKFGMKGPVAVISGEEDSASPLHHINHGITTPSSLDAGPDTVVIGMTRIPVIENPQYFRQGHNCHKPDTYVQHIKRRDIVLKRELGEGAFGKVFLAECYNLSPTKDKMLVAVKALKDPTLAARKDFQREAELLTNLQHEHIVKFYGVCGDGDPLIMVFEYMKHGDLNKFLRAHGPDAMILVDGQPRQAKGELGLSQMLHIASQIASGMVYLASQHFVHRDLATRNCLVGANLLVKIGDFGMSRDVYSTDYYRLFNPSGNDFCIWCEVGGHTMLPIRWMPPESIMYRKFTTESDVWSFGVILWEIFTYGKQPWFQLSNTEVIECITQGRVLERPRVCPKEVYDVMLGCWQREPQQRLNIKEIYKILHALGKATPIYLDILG
Sequence of PKBα(h) (P31749 whole entry): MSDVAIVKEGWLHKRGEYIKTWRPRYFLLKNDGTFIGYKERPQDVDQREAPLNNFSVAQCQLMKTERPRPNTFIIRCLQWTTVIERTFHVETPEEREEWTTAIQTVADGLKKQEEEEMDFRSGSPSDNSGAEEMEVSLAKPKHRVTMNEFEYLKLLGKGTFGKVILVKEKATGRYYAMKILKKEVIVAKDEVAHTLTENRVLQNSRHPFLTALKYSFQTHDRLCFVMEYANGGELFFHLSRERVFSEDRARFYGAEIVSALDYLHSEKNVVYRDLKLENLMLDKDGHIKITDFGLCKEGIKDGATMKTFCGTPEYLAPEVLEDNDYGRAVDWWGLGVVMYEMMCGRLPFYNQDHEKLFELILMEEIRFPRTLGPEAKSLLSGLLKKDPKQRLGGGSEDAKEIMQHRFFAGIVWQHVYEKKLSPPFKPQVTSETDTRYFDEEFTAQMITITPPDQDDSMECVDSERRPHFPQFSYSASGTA

Take `Nc1nc(Nc2ccc3c(c2)CC[C@@H](N2CCCC2)CC3)nn1-c1cc2c(nn1)-c1ccccc1CCC2` [R428, 1H-1,2,4-Triazole-3,5-diamine, 1-(6,7-dihydro-5H-benzo[6,7]cyclohepta[1,2-c]pyridazin-3-yl) N3-[(7S)-6,7,8,9-tetrahydro-7-(1-pyrrolidinyl)-5H-benzocyclohepten-2-yl]-]: the “efficiency in targeting Ret(h)” value at Ret(h) (R428 @ 1 μM) and at Ret(h) (R428 @ 10 μM) was 1 throughout. The “inhibition of Ret (in words)” value against Ret(h) (at 1 and 10 μM) was “potently inhibits”. Further, the activity at 1 µM on PKBα(h) (R428 @ 1 μM) turned out to be 87%. Also, on PKBα(h) (R428 @ 10 μM), the activity at 10 µM was 57%. The “efficiency in targeting SAPK4(h)” value at SAPK4(h) (R428 @ 1 μM) amounted to 94; at SAPK4(h) (R428 @ 10 μM) it was 91. In addition, the “efficiency in targeting CDK1/cyclinB (Hh)” value turned out to be 101 at CDK1/cyclinB (Hh) (R428 @ 1 μM) and 88 at CDK1/cyclinB (Hh) (R428 @ 10 μM). Also, the “efficiency in targeting TrkC(h)” value at TrkC(h) (R428 @ 1 μM) is 47; on TrkC(h) (R428 @ 10 μM), 13. The results for the MAFA expression result with MAFA expression [1] and with MAFA expression [2] were “increases MAFA expression” and “removal of R428 resulted in a significant decrease in MAFA expression”, respectively.

The values above are taken from patent US10870832B2, “Use of small molecules to enhance MAFA expression in pancreatic endocrine cells” (Janssen Biotech, Inc., priority 2014, dated 2020).
